Some test systems named below: RXF-631 renal; XF 498 CNS; KM20L2 colon; MDA-MB-231 breast; MDA-N; PC-3 prostate; SN12K1 renal; P388 leukemia; P388/ADR leukemia.
Assay in all cases: NCI tumour cell line growth inhibition, 48 h

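48-hour exposure; five concentrations; linearly interpolated endpoints. The concentration for 50% growth inhibition is given as GI50. TGI denotes the concentration required for complete inhibition of growth.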

The source of these data is PubChem BioAssay (NCI).

Take `O=C1/C(=C/c2ccc(Cl)cc2)CCC1CCN1CCOCC1` (centres undefined): the TGI in the experiment with RXF-631 renal, in the experiment with XF 498 CNS and in the experiment on KM20L2 colon was greater than 100 µM throughout.
As to `N#C/C1=C(\N)CCSSSC1`, the TGI is greater than 100 µM in the experiment on RXF-631 renal, greater than 100 µM in the experiment on XF 498 CNS and 49.3 µM in the experiment with KM20L2 colon.
For the compound `O=c1ccn([C@H]2CSC[C@@H](CO)C2)c(=O)[nH]1`, the TGI with RXF-631 renal and in the experiment on KM20L2 colon was greater than 100 µM each time.
Consider `CCC(C)COC(=O)c1ccc(N=Cc2ccc(C=Nc3ccc(C(=O)OCC(C)CC)cc3)cc2)cc1` (centres undefined), for which the TGI in the experiment on RXF-631 renal and with KM20L2 colon was greater than 100 µM throughout.
As for `CC1CN(C(=O)CN2CCC(CCCCN(C)C)CC2)c2ccccc2NC1=O` (centres undefined), the TGI in the experiment on RXF-631 renal and with KM20L2 colon was greater than 100 µM throughout.
Take `CCN1CCC(O)(c2ccc(OC)cc2)C(C(=O)c2ccc(OC)cc2)C1` (centres undefined): the TGI was 47.5 µM in the experiment with RXF-631 renal, 31.7 µM in the experiment with XF 498 CNS and 33.2 µM in the experiment with KM20L2 colon.
As for `COc1cc2c(c(OC)c1OC)-c1ccc(SC)c(=O)cc1C(NC=O)CC2` (centres undefined), the TGI in the experiment with MDA-MB-231 breast is greater than 4.64 µM; with MDA-N, less than 0.01 µM; with XF 498 CNS it was greater than 100 µM; with KM20L2 colon, less than 0.01 µM; in the experiment on PC-3 prostate, greater than 100 µM.
As for `O=C1/C(=C/c2ccc3c(c2)OCO3)SC2C=Nc3ccccc3N12` (centres undefined), the TGI in the experiment on RXF-631 renal, in the experiment on XF 498 CNS and in the experiment with KM20L2 colon was greater than 100 µM in each case.
As for `CCOc1ccc(NC(=O)C(=O)CC(=O)c2c(C)n([O-])c3ccccc3[n+]2=O)cc1`, the TGI in the experiment on RXF-631 renal, with XF 498 CNS and in the experiment on KM20L2 colon was greater than 100 µM each time.
With `COc1cc(NCc2ccc3nc(N)nc(N)c3c2C)cc(OC)c1OC` (tested in a mixture with another compound), the TGI in the experiment on SN12K1 renal was 36.6 µM; in the experiment on MDA-MB-231 breast, 55.2 µM; in the experiment on P388 leukemia, 10 µM; in the experiment on P388/ADR leukemia, 12.7 µM; in the experiment with MDA-N it was 44.9 µM; in the experiment on XF 498 CNS, 8.19 µM. In addition, the TGI in the experiment with KM20L2 colon was determined as 48.5 µM; with PC-3 prostate, 37.4 µM. Further, the GI50 in the experiment with MDA-MB-231 breast was 0.0893 µM; with MDA-N it was 0.025 µM.
Regarding `O=C(/C=C/c1cccc2ccccc12)c1ccccc1Cl`, the figures for the TGI with RXF-631 renal, with XF 498 CNS and in the experiment on KM20L2 colon were 41.9 µM, 20.6 µM and 25.6 µM, respectively.
With `CCOc1ccc(NC(=O)CC#N)cc1`, the TGI with RXF-631 renal, in the experiment with XF 498 CNS and in the experiment with KM20L2 colon was greater than 100 µM in each case.
Consider `Cc1cc(Cl)ccc1NC(=O)C(=O)Cc1nc2ccccc2o1`, for which the TGI in the experiment with RXF-631 renal, in the experiment with XF 498 CNS and with KM20L2 colon was greater than 100 µM in each case.
Take `O=C(CCc1n[nH]c(=S)o1)Nc1ccccc1C(F)(F)F`: the TGI in the experiment on RXF-631 renal and with KM20L2 colon was greater than 100 µM each time.
For `Cc1ccc(/C=C/C(=O)c2sc(-c3nc(C)c(C(=O)/C=C/c4ccc(C)cc4)s3)nc2C)cc1`, the TGI in the experiment on RXF-631 renal and with KM20L2 colon was greater than 100 µM throughout.
As to `COc1ccc(CC2NCCc3c2[nH]c2ccccc32)cc1` (centres undefined), the TGI with RXF-631 renal is 73.5 µM; in the experiment on XF 498 CNS, 66.5 µM; with KM20L2 colon, greater than 100 µM.
The matching figures for `OCC1OC(c2nc(C3=NCCCN3)cs2)C(O)C1O` (centres undefined): greater than 100 µM, greater than 100 µM and greater than 100 µM.
With `CN1CCOC(c2ccccc2)O1` (centres undefined), the TGI in the experiment on RXF-631 renal and in the experiment on KM20L2 colon was greater than 100 µM in each case.
Turning to `Cc1ccc(NC(=O)CCc2cc(C(C)(C)C)nc(=S)[nH]2)cc1C`, the TGI in the experiment on XF 498 CNS and in the experiment with KM20L2 colon was greater than 100 µM throughout.
